Test results as given in ChEMBL document CHEMBL5380818, “BAY-6096: A Potent, Selective, and Highly Water-Soluble Adrenergic α2B Antagonist” (J Med Chem, 2023).
≈ marks a conversion by molar mass, not a printed value.

Legend:
[1] = Metabolic stability in cryopreserved dog liver hepatocytes at 10 uM incubated upto 4 hrs by LC/MS/MS analysis; type: ADME, cell-based, Canis lupus familiaris, Hepatocyte
[2] = Metabolic stability in cryopreserved rat liver hepatocytes at 10 uM incubated upto 4 hrs by LC/MS/MS analysis; type: ADME, cell-based, Hepatocyte
[3] = Chemical stability of the compound assessed as decomposition at pH 10 measured upto 24 hrs; type: physicochemical; settings: buffer, pH 10, 24 h
[4] = Chemical stability of the compound assessed as decomposition at pH 1 measured upto 24 hrs; type: physicochemical; settings: buffer, pH 1, 24 h
[5] = Permeability across apical to basolateral side human Caco-2 cells incubated for 2 hrs measured by LC/MS/MS analysis; type: ADME, cell-based; settings: caco-2, 2 h
[6] = Metabolic stability in dog liver microsomes at pH 7.4 in presence of NADPH/UDPGA by LC/MS/MS analysis; type: ADME, Canis lupus familiaris, Microsome
[7] = Metabolic stability in rat liver microsomes at pH 7.4 in presence of NADPH/UDPGA by LC/MS/MS analysis; type: ADME, Microsome
[8] = Metabolic stability in cryopreserved human liver hepatocytes at 10 uM incubated upto 4 hrs by LC/MS/MS analysis; type: ADME, cell-based, Hepatocyte
[9] = Mutagenecity in Salmonella typhimurium in presence of s9 fraction by Ames test; type: toxicity, subcellular; settings: salmonella enterica subsp. enterica serovar typhimurium
[10] = Chemical stability of the compound assessed as decomposition at pH 7 measured upto 24 hrs; type: physicochemical; settings: buffer, pH 7, 24 h
[11] = biological target: T1, Alpha-2B adrenergic receptor (Homo sapiens, UniProt P18089); assay: Antagonist activity at human recombinant adrenergic alpha2B receptor expressed in CHO cell treated with compound for 5 mins followed by norepinephrine measured for 50 secs by microtitre plate method; type: functional, cell-based
T1 sequence (P18089 whole entry): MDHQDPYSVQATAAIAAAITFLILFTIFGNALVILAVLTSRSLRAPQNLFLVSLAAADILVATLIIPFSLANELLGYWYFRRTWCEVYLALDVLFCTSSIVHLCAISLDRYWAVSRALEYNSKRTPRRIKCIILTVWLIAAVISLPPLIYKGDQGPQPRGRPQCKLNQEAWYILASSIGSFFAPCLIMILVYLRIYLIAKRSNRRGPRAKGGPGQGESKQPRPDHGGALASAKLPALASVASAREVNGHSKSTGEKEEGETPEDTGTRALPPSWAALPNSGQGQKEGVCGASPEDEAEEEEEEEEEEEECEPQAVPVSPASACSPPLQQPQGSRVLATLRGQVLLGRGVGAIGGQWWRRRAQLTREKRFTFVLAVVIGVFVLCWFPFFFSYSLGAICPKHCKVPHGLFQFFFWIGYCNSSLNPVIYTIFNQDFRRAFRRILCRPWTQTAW

Cytochrome P450 2C8 = biological target: T2, Cytochrome P450 2C8 (Homo sapiens, UniProt P10632); assay: Inhibition of human liver microsome CYP2C8 at 0.6 to 20 uM measured by LC/MS/MS analysis; type: ADME; settings: microsomes, dose 0.6-20 µM
T2 sequence (P10632 whole entry): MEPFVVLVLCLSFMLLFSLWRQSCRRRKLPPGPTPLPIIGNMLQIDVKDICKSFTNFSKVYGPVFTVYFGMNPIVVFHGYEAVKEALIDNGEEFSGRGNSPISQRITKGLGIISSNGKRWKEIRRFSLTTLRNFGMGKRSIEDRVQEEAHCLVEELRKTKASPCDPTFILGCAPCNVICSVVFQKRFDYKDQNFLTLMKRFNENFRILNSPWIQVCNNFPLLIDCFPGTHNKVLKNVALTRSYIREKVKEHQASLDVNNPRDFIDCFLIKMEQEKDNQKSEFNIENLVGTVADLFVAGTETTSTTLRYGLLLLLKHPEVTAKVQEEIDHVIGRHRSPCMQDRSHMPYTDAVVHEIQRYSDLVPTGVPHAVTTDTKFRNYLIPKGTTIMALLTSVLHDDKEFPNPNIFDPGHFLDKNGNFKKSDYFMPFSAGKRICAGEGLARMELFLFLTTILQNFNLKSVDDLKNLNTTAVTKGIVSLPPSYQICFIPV

[12] = Stability of the compound assessed as no adsorption to the sterile filter at pH 7.4 in 0.9% NaCl by measuring feasibility of sterilization at 121 degC for 15 mins using HPLC analysis; type: physicochemical; settings: buffer
Cytochrome P450 3A4 [13] = biological target: T3, Cytochrome P450 3A4 (Homo sapiens, UniProt P08684); assay: Induction of human hepatocyte CYP3A4 treated upto 211 uM for 48 hrs by measuring mRNA expression using delta delta Ct method; type: ADME, cell-based; settings: hepatocytes
[14] = Stability of the compound assessed as no adsorption to the sterile filter at pH 7.4 in 0.9% NaCl by measuring feasibility of sterilization using HPLC analysis; type: physicochemical; settings: buffer
[15] = Chemical stability of the compound at pH 10 measured upto 7 days; type: physicochemical; settings: buffer, pH 10, 168 h; time < 7 day
[16] = Chemical stability of the compound in 0.9% NaCl at pH 7.4 measured for 13 week at 40 degC; type: physicochemical; settings: buffer, pH 7.4, 2184 h; time 13 weeks
Cytochrome P450 1A2 [17] = biological target: T4, Cytochrome P450 1A2 (Homo sapiens, UniProt P05177); assay: Inhibition of human liver microsome CYP1A2 at 0.6 to 20 uM measured by LC/MS/MS analysis; type: ADME; settings: microsomes, dose 0.6-20 µM
T4 sequence (P05177 whole entry): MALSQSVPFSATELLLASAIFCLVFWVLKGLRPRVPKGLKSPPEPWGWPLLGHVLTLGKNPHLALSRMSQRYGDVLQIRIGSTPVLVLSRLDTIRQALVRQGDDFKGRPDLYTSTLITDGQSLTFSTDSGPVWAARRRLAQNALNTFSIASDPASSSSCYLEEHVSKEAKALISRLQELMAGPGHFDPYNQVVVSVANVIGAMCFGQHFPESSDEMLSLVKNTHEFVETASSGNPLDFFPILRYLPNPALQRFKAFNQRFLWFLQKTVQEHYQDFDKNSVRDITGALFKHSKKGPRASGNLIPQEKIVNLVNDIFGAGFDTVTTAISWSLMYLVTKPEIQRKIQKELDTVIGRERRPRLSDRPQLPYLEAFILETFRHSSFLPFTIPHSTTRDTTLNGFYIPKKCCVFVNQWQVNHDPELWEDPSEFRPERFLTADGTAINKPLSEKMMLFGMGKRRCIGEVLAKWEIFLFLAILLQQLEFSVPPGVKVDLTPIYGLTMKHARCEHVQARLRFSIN

[18] = Plasma protein binding in human plasma assessed as unbound fraction by equilibrium dialysis base LC-MS/MS analysis; type: ADME, cell-free
[19] = biological target: Sodium channel protein type 5 subunit alpha (Homo sapiens, UniProt Q14524); assay: Inhibition of human Nav1.5 channel; type: toxicity
[20] = Volume of distribution at steady state in dog plasma 0.3 mg/kg, iv measured 0.033 to 24 hrs by LC-MS/MS analysis; type: ADME, organism-based, Canis lupus familiaris; settings: time 0.033-24 hrs, read-out: Vdss
[21] = Volume of distribution at steady state in Wistar rat plasma 0.3 mg/kg, iv measured upto 24 hrs by LC-MS/MS analysis; type: ADME, organism-based; settings: in vivo
[22] = Chemical stability of the compound at pH 7 measured upto 7 days; type: physicochemical; settings: buffer, pH 7, 168 h; time < 7 day
[23] = Plasma protein binding in dog plasma assessed as unbound fraction by equilibrium dialysis base LC-MS/MS analysis; type: ADME, cell-free, Canis lupus familiaris
Cytochrome P450 2D6 = Cytochrome P450 2D6 (Homo sapiens, UniProt P10635); assay: Inhibition of human liver microsome CYP2D6 at 0.6 to 20 uM measured by LC/MS/MS analysis; type: ADME; settings: microsomes, dose 0.6-20 µM
[24] = Plasma protein binding in rat plasma assessed as unbound fraction by equilibrium dialysis base LC-MS/MS analysis; type: ADME, cell-free
[25] = biological target: Voltage-dependent L-type calcium channel subunit alpha-1C (Homo sapiens, UniProt Q13936); assay: Inhibition of human Cav1.2 channel; type: toxicity
[26] = Chemical stability of the compound in 0.9% NaCl at pH 7.4 measured upto 1 week at 90 degC; type: physicochemical; settings: buffer, pH 7.4, 168 h; time < 1 weeks
[27] = Plasma protein binding in monkey plasma assessed as unbound fraction by equilibrium dialysis base LC-MS/MS analysis; type: ADME, cell-free, Macaca mulatta; settings: rhesus monkey
Cytochrome P450 1A2 [28] = biological target: T4, Cytochrome P450 1A2; assay: Induction of human hepatocyte CYP1A2 treated upto 211 uM for 48 hrs by measuring mRNA expression using delta delta Ct method; type: ADME, cell-based; settings: hepatocytes
[29] = Clearance in Wistar rat plasma 0.3 mg/kg, iv measured upto 24 hrs by LC-MS/MS analysis; type: ADME, organism-based; settings: in vivo
Cytochrome P450 2C9 = Cytochrome P450 2C9 (Homo sapiens, UniProt P11712); assay: Inhibition of human liver microsome CYP2C9 at 0.6 to 20 uM measured by LC/MS/MS analysis; type: ADME; settings: microsomes, dose 0.6-20 µM
[30] = Clearance in dog plasma 0.3 mg/kg, iv measured 0.033 to 24 hrs by LC-MS/MS analysis; type: ADME, organism-based, Canis lupus familiaris; settings: time 0.033-24 hrs
[31] = biological target: Voltage-gated inwardly rectifying potassium channel KCNH2 (Homo sapiens, UniProt Q12809); assay: Inhibition of hERG by electrode whole cell voltage clamp method; type: toxicity
[32] = Chemical stability of the compound at pH 1 measured upto 7 days; type: physicochemical; settings: buffer, pH 1, 168 h; time < 7 day
[33] = Mean residence time in Wistar rat plasma 0.3 mg/kg, iv measured upto 24 hrs by LC-MS/MS analysis; type: ADME, organism-based; settings: in vivo
Cytochrome P450 3A4 [34] = biological target: T3, Cytochrome P450 3A4; assay: Inhibition of human liver microsome CYP3A4 at 0.6 to 20 uM measured by LC/MS/MS analysis; type: ADME; settings: microsomes, dose 0.6-20 µM
[35] = Solubility of the compound in pH 7 shaken for 24 hrs; type: physicochemical; settings: buffer

T3 sequence (P08684 whole entry): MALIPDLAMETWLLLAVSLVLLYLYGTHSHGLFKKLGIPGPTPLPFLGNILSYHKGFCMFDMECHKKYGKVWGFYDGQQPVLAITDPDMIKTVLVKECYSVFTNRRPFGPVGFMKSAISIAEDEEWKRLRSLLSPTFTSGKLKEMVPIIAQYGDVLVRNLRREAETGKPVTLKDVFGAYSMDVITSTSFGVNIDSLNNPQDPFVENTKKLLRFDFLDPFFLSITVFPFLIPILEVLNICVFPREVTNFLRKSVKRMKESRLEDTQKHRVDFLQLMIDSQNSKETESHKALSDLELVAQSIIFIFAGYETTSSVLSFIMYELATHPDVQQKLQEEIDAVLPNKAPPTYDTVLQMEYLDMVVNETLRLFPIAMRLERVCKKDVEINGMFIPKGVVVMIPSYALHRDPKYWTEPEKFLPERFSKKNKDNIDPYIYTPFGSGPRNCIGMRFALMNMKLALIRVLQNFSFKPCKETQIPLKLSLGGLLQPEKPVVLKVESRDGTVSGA
Chain of Cytochrome P450 2C9 (P11712 whole entry): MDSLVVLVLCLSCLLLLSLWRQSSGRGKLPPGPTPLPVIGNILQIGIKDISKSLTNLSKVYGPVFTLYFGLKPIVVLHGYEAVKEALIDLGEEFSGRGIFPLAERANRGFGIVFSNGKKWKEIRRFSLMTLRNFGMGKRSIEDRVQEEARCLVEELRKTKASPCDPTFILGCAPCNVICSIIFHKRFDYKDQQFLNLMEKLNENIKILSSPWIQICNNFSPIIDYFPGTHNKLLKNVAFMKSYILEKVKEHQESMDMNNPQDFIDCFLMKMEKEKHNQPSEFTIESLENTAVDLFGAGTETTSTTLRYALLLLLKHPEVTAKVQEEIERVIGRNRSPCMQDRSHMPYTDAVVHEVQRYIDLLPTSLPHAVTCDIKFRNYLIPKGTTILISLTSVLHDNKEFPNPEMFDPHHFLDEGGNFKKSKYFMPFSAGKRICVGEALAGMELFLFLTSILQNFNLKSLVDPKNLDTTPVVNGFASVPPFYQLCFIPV
Chain of Voltage-dependent L-type calcium channel subunit alpha-1C (Q13936 whole entry): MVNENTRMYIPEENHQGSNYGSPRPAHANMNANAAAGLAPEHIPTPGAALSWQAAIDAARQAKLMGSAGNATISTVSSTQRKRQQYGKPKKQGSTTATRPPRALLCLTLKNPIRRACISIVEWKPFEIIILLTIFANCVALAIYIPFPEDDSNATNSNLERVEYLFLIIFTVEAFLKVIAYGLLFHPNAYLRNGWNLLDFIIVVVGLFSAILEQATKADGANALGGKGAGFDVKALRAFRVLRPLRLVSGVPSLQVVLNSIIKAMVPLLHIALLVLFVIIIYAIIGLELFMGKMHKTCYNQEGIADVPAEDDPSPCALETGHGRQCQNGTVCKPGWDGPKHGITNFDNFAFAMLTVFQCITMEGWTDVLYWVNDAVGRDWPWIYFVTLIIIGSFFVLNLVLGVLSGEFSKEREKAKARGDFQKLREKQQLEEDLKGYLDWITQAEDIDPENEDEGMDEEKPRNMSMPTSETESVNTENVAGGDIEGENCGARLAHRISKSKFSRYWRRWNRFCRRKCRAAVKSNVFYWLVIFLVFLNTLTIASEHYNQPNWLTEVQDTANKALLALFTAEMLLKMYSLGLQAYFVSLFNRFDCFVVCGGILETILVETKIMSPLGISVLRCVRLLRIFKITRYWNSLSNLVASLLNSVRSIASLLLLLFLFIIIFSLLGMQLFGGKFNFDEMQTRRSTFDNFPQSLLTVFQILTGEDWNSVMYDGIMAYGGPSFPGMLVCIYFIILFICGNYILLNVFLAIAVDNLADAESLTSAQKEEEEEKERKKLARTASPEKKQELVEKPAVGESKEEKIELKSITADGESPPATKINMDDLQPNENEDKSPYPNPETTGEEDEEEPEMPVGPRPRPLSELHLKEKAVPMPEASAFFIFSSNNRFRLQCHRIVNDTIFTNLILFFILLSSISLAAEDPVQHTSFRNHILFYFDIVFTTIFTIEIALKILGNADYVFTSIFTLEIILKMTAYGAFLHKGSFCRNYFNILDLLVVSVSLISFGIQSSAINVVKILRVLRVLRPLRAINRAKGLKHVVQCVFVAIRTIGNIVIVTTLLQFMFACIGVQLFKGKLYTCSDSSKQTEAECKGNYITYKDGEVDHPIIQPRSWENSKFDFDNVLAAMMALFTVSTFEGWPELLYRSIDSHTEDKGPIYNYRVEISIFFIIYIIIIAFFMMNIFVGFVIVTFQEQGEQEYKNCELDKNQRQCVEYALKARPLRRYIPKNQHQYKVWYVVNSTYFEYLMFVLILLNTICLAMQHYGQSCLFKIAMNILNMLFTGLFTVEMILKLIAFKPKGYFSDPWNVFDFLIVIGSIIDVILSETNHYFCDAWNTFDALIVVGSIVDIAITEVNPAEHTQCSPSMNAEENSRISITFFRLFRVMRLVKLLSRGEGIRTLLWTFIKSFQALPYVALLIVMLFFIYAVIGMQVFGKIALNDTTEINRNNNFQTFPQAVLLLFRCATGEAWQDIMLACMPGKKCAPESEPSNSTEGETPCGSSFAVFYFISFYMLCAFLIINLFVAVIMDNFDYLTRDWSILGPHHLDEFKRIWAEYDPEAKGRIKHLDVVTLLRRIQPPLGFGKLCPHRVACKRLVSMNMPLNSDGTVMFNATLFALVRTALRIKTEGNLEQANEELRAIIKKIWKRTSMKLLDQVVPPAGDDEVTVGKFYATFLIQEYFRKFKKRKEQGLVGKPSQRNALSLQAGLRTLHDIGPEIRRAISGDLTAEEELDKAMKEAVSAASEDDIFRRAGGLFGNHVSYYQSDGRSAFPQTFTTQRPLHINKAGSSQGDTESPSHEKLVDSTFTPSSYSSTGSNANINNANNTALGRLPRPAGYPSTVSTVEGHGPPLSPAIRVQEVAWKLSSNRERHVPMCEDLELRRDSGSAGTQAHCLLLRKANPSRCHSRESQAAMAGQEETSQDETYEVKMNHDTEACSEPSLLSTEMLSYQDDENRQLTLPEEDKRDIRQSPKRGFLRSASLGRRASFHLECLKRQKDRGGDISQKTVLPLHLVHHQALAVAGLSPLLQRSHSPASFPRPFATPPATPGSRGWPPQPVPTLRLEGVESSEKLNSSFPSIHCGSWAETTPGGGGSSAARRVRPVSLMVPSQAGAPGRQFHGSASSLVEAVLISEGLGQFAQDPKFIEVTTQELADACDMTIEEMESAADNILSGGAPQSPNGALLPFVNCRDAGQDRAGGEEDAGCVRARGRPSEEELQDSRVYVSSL
Chain of Voltage-gated inwardly rectifying potassium channel KCNH2 (Q12809 whole entry): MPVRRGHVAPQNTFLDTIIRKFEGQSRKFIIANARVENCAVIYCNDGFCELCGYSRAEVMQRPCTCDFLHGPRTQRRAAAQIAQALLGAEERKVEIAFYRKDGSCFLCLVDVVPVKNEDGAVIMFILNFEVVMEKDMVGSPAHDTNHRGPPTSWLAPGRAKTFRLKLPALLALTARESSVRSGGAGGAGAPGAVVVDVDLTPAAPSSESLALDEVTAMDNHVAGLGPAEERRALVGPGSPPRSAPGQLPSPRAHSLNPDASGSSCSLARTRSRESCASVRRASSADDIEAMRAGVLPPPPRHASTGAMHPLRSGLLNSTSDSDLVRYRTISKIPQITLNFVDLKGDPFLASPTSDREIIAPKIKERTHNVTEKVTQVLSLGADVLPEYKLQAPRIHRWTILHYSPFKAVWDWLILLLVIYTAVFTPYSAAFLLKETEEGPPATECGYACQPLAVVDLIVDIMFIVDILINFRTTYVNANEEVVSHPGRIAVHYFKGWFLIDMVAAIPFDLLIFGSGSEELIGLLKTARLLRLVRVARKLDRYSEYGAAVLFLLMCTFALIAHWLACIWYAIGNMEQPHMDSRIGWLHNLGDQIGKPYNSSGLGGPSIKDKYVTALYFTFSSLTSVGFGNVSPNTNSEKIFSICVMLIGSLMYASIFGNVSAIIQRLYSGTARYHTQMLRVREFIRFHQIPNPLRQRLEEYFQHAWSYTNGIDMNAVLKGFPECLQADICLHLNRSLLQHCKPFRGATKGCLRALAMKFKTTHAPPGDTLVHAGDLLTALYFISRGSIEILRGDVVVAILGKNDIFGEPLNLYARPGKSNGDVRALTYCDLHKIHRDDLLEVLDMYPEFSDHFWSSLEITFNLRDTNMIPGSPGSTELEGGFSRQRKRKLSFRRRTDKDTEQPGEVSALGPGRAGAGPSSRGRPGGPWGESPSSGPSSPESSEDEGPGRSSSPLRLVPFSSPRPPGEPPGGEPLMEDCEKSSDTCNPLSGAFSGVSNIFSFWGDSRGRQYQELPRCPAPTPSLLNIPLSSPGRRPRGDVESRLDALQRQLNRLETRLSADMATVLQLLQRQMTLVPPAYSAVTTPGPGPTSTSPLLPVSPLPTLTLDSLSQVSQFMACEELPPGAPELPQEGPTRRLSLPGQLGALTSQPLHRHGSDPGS
Chain of Cytochrome P450 2D6 (P10635 whole entry): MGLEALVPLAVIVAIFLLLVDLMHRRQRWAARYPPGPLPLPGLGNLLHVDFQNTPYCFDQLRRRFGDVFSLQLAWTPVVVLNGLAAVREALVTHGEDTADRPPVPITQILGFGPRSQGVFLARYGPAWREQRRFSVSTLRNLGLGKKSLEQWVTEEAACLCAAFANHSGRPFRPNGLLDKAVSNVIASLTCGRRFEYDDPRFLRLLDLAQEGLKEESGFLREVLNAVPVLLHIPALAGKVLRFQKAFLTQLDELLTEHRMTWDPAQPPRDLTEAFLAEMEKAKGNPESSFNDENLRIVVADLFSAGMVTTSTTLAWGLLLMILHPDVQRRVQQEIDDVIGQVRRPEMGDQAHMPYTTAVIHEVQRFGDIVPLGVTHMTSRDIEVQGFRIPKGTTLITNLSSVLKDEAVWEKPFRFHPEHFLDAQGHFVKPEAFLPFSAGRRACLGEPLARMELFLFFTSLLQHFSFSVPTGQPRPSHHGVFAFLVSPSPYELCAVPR

For `CNc1cc[n+](CC(=O)Nc2ccc3c(c2)ncn3-c2c(C)noc2C)cc1.O=C[O-]`, the Stability [1] was “Stable”, the Stability [2] was “Stable” and the Stability [3] was “Stable”. For the same molecule, the Stability [4] was “Stable”, the permeability [5] was 0.36 ×10⁻⁶ cm/s and the Stability [6] was “Stable”. For the same molecule, the Stability [7] was “Stable”, the Stability [8] was “Stable” and the Activity [9] was “Toxic”. The Stability [10] was “Stable”.

With `CNc1ccncc1` the Activity [9] was “Non-Toxic”.

With `CNc1cc[n+](CC(Nc2ccc3c(c2)ncn3-c2c(C)noc2C)C(F)(F)F)cc1` (racemic) the IC50 [11] was 7.05 µM.

In the case of `CNc1cc[n+](CCNC(=O)c2ccn3c(-c4c(C)noc4C)cnc3c2)cc1.[Cl-]`, the “inhibition (INH)” value (Cytochrome P450 2C8) is reported as “Not Active”, the Stability [12] is reported as “Stable” and the Activity (Cytochrome P450 3A4 [13]) is reported as “Not Active”. For the same molecule, the Stability [14] was “Stable”, the Stability [15] was “Stable” and the Stability [16] was “Stable”. The permeability [5] was 0.3 ×10⁻⁶ cm/s, the “inhibition (INH)” value (Cytochrome P450 1A2 [17]) was “Not Active” and the Fu [18] was 85%. For the same molecule, the “inhibition (INH)” value [19] was “Not Active”, the Vd [20] was 0.6 L/kg and the Vdss [21] was 0.5 L/kg. For the same molecule, the Stability [22] was “Stable”, the Fu [23] was 82% and the “inhibition (INH)” value (Cytochrome P450 2D6) was “Not Active”. For the same molecule, the Fu [24] was 79%, the “inhibition (INH)” value [25] was “Not Active” and the Stability [26] was “Stable”. For the same molecule, the Activity [9] was “Non-Toxic”, the Fu [27] was 92% and the Activity (Cytochrome P450 1A2 [28]) was “Not Active”. For the same molecule, the CL [29] was 71.7 mL/min/kg, the “inhibition (INH)” value (Cytochrome P450 2C9) was “Not Active” and the clearance [30] was 26.7 mL/min/kg. The “inhibition (INH)” value [31] was “Not Active”, the Stability [32] was “Stable” and the MRT [33] was 6 min. For the same molecule, the “inhibition (INH)” value (Cytochrome P450 3A4 [34]) was “Not Active”.

In the case of `Cc1noc(C)c1N`, the Activity [9] is reported as “Non-Toxic”.

In the case of `COc1ccccc1-n1cnc2cc(NC(C)=O)ccc21`, the solubility thermodynamic at 24 h [35] is reported as 300 µg/mL (≈ 1070 µM).

In the case of `CNc1cc[n+](CCNC(=O)c2ccc3c(c2)ncn3-c2c(C)noc2C)cc1.O=C[O-]`, the Activity [9] is reported as “Non-Toxic”.

For `CNc1cc[n+](CC(=O)Nc2cnc3c(c2)ncn3-c2ccccc2OC)cc1.O=C[O-]`, the Activity [9] was “Toxic”.

`COc1ccccc1-n1cnc2cc(NC(=O)CCc3ccccn3)ccc21` gave a solubility thermodynamic at 24 h [35] of 20 µg/mL (≈ 53.7 µM).

For `Cc1noc(C)c1-n1cnc2cc(N)ccc21`, the Activity [9] was “Toxic”.

For `CNc1cc[n+](CC(=O)Nc2cccc(C)c2)cc1.O=C[O-]`, the Activity [9] was “Non-Toxic”.
